The text below walks through data of PMC6211316, “Synthesis and biological evaluation of 3-arylcoumarin derivatives as potential anti-diabetic agents” (Journal of Enzyme Inhibition and Medicinal Chemistry, 2018).

Series [1] in a line: DPPH free radical scavenging. Particulars: mean ± SD (n = 3). The procedure: The effect of target compounds and vitamin C to scavenge the DPPH free radical was evaluated with the method described by Villano et al.[43] with slight modifications.
Two millilitres of different concentrations of the sample solution was added to 2.0 ml of DPPH solution (0.04 mg/mL), shaken and allowed to react at room temperature for 30 min. The absorbance value was measured at 517 nm with an ultraviolet-visible spectrophotometer. The blank reference cuvette contained absolute ethanol. All measurements were performed in triplicate. IC50 values were calculated. The percentage of DPPH radical scavenging rate of the target compound is calculated as follows: DPPH free radical scavenging effect (%)=[A0−(A1−A2)]/A0×100% where A0 is the absorbance of 2.0 ml DPPH solution +2.0 ml absolute ethanol; A1 is the absorbance of 2.0 ml DPPH solution +2.0 ml 3-arylcoumarins solution or standard; A2 is the absorbance of 2.0 ml 3-arylcoumarins solution or standard +2.0 ml absolute ethanol.

A short description of series [2]: hydroxyl radical scavenging. The conditions noted are these: mean ± SD (n = 3), read-out: OH IC50 Value. On the procedure: The ability of the target compounds and vitamin C to scavenge the hydroxyl radical was evaluated with method described by Ismaili et al.[29] with slight modifications. In test tube, 1.0 ml H2O2 solution (0.03%), 1.0 ml FeSO4 solution (2 mmol.L^−1), 1.0 ml salicylic acid solution (10 mmol.L^−1) and 1.0 ml of 3-arylcoumarins and standard water solution with different concentration (0.4–2.0 mg/mL) were mixed. Finally, 1.0 ml H2O2 solution (0.03%) was added to this mixture to start the reaction. Solutions were kept at 37 °C. After 30 min, the absorbance was measured at 510 nm against the reagent blank, where the distilled water was substituted for the H2O2 solution. The percentage of OH scavenging by target compounds and vitamin C was calculated the following equation: OH scavenging effect (%)=[A0−(A1−A2)]/A0×100% where A0 is the absorbance of 1.0 ml distilled water +1.0 ml H2O2 + 1.0 ml FeSO4 + 1.0 ml salicylic acid +1.0 ml H2O2; A1 is the absorbance of 1.0 ml 3-arylcoumarins or standard +1.0 ml H2O2 + 1.0 ml FeSO4 + 1.0 ml salicylic acid +1.0 ml H2O2; A2 is the absorbance of 1.0 ml 3-arylcoumarins or standard +1.0 ml H2O2 + 1.0 ml FeSO4 + 1.0 ml absolute absolute ethanol +1.0 ml H2O2.

The subject of a further series is mice. Further details: method as in PMID 17360155. Particulars: cited from earlier work.
The target of another series is T1, α-Glucosidase (Saccharomyces cerevisiae, UniProt P53341).
T1 construct: purchased Sigma Aldrich G0660-750UN
T1 sequence (P53341 whole entry): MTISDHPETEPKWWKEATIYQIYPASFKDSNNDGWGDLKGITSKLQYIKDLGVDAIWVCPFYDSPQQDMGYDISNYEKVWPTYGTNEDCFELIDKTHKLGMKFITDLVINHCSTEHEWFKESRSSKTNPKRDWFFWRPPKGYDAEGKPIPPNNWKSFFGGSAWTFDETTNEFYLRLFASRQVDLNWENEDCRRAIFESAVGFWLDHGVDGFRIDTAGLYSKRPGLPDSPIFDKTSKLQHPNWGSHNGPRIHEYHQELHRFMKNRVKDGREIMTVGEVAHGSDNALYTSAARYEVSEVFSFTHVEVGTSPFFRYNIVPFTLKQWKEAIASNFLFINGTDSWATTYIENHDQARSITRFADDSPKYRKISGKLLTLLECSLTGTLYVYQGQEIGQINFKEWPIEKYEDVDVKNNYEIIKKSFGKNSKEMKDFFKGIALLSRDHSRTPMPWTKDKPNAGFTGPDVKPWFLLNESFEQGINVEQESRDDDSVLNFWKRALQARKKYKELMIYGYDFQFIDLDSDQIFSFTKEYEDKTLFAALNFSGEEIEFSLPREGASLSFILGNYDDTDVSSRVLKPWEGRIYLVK
Put plainly: biochemical. The series is classed as biochemical. On the procedure:
α-Glucosidase (G0660-750UN, Sigma Aldrich) and 4-Nitrophenyl α-D-glucopyranoside (PNPG, Macklin) were dissolved in phosphate buffer (pH 6.8, 100 mM), and the test compounds were dissolved in DMSO solution. The experiment was divided into blank group, control group, sample blank group, and sample group. The reagents were loaded in 96-well plates at the dose of the table (Table 8). The solution was bathed in 37 °C water for 10 min, and then enzyme solution was added. After reaction at 37 °C for 20 min, 70 μL Na2CO3 solution ([…]) was added to stop the reaction. All experiments were run in triplicate. […] Since PNPG can produce glucose and p-Nitrophenol (PNP) under the action of α-glucosidase, PNP has the greatest absorption at 405 nm. The absorbance was determined by the microplate reader, and the inhibition rate of α-glucosidase and the IC50 value of each sample were calculated according to the formula. Inhibition rate %={[(AC−AB)−(AS−ASB)]/(AC−AB)}×100% where AC is the absorbance of control group; AB is the absorbance of blank group; AS is the absorbance of sample group; ASB is the absorbance of sample blank group.

Series [3] in a line: Oral toxicity to mice (Lorke's method). Particulars: both sexes, mouse, in vivo, Kunming mice, observed 14 days. On the procedure:
With reference to Lorke’s method, kunming mice were used as targets to estimate the oral toxicity of each compound to mice. We select compounds 11, 17, 25, 28, and 35 at concentrations of 10, 100, and 1000 mg/kg to test their oral toxicity in the first phase, and 1600, 2900, and 5000 mg/kg at the second phase.
Experiments were performed on Kunming mice (male and female half, bw range, 25–30 g). Mice were housed in a climate and light controlled room with a 12 h light/dark cycle. Twelve hours before experiments, food was withheld, but animals had free access to drinking water. The compounds were suspended in vehicle (Tween-80, 0.2% in saline). The concentrations were adjusted to orally administrate 0.2 ml/10 g of bw. Mice were treated in two phases. In the first, intragastric doses of 10, 100 and 1000 mg/kg of bw of compounds were administered. On the second, the doses were adjusted to 1600, 2900, and 5000 mg/kg of bw of compounds. In both phases, mice were observed daily in a period of 14 days for mortality, toxic effects and/or changes in behavioural pattern. At the end of the experiments, the mice were sacrificed in a CO2 chamber.

The next series relates to STZ-diabetic mice. Put plainly: Acute hypoglycemic assay in STZ-diabetic mice. The series is classed as in vivo. Particulars: STZ-diabetics mice. On the procedure:
Type II diabetes mellitus was induced in mice by a single intraperitoneal injection of freshly prepared STZ (Sigma Aldrich) dissolved in 0.1M citrate buffer, pH 4.5, in a volume of 110 mg/kg of bw. After 7 days of STZ administration, blood glucose levels of each mouse were determined. Mice with blood glucose levels higher than 11 mM were considered diabetic and were included in the study.
STZ-induced diabetic mice and normal mice were placed in single cages with wire-net floors and deprived of food for 12 h before experimentation but allowed free access to tap water throughout. The compounds (at the doses of 10, 30, and 100 mg/kg of bw) were suspended in 0.05% Tween-80 in saline solution. Glibenclamide (10 mg/kg of bw) was suspended in the same vehicle. The target compounds were freshly prepared immediately before experimentation and administered by the intragastrical route at the doses of 10 ml/kg of bw. Control mice received only the vehicle (0.05% Tween-80 in saline solution) by the same route. Blood glucose levels were measured at 0, 1.5, 3, 5, 7, and 9 h after drugs administration.

Another series has as its system AGEs formation. Put plainly: In vitro inhibitory activity of AGEs formation (bovine serum albumin/glucose). The series is classed as biochemical. Particulars: mean ± SD (n = 3). The procedure: To prepare the AGEs reaction solution, 10 mg/mL of bovine serum albumin in 50 mM PBS (pH 7.4) was added to 0.2 M glucose, and 0.02% sodium azide was added to prevent bacterial growth. The reaction mixture (3.0 ml) was then mixed with various concentrations (0.5–1000 μg/mL) of the target compounds (1.0 ml) dissolved in DMSO. After incubating at 37 °C for 14 d, the fluorescence intensity of AGE was determined by a fluorospectrophotometer (PE, USA) with excitation and emission wavelengths at 350 nm and 420 nm, respectively. All experiments were run in triplicate. Aminoguanidine hydrochloride was used as a reference compound. The inhibition rate of AGEs formation and the IC50 value of each sample were calculated according to the formula. Inhibition rate %={[(AC−AB)−(AS−ASB)]/(AC−AB)}×100% where AC is the absorbance of control group(1.0 ml glucose +1.0 ml bovine serum albumin +1.0 ml sodium azide +1.0 ml DMSO); AB is the absorbance of blank group(1.0 ml PBS +1.0 ml bovine serum albumin +1.0 ml sodium azide +1.0 ml DMSO); AS is the absorbance of sample group (1.0 ml glucose +1.0 ml bovine serum albumin +1.0 ml sodium azide +1.0 ml target compound solution or Aminoguanidine hydrochloride solution); ASB is the absorbance of sample blank group (1.0 ml PBS +1.0 ml bovine serum albumin +1.0 ml sodium azide +1.0 ml target compound solution or Aminoguanidine hydrochloride solution).

Like-named read-outs stand apart in the source and are kept apart here.

Turning to `O=C1O[C@H]([C@@H](O)CO)C(O)=C1O` [Vitaminc, Vitamin C, reference compound], the concentration for half-maximal inhibition (IC50) worked out at 19.6 ± 1.88 µM in series [1], 34.9 ± 0.85 µM in series [1] (listed as Vitamin C) and 0.787 ± 0.0157 mM in series [2]. For the same molecule, in the series on mice, the “protection against STZ-induced elevation in the plasma glucose levels” value is given as “only a marginal to moderate protection”.

Consider `NCCS(=O)(=O)O` [taurine], for which the “protection against STZ-induced elevation in the plasma glucose levels” value in the series on mice is given as “only a marginal to moderate protection”.

Regarding `O=c1oc2cc(O)cc(O)c2cc1-c1ccc(O)cc1` [Compound 28, 5,7-Dihydroxy-3-(4-hydroxyphenyl)-coumarin], the IC50 in series [1] was 41.51 ± 0.18 µM; in series [2], greater than 1 mM; at α-Glucosidase (mean ± SD (n = 3), read-out: α-Glucosidase inhibitory activity IC50 Value), 1.37 ± 0.15 µM. Further, on α-Glucosidase (in vitro), the “α-glucosidase inhibitory activity (in words)” value is given as “moderate to excellent inhibitory activity”. For the same molecule, the LD50 at 14 days in series [3] is greater than 5000 mg/kg. The Blood glucose concentration came to 15.3 ± 3.8 mM in the series on STZ-diabetic mice (10 mg/kg of bw per os, 0h); 14.8 ± 5.8 mM in the series with STZ-diabetic mice (10 mg/kg of bw per os, 1.5h); 11.4 ± 4.2 mM with STZ-diabetic mice (10 mg/kg of bw per os, 3h); 8.9 ± 2.6 mM in the series on STZ-diabetic mice (10 mg/kg of bw per os, 5h); 6.4 ± 1.6 mM with STZ-diabetic mice (10 mg/kg of bw per os, 7h); 7.0 ± 2.4 mM in the series with STZ-diabetic mice (10 mg/kg of bw per os, 9h). The Blood glucose concentration with STZ-diabetic mice (30 mg/kg of bw per os, 0h) came to 18.2 ± 6.7 mM; in the series on STZ-diabetic mice (30 mg/kg of bw per os, 1.5h) it was 14.9 ± 6.6 mM; in the series with STZ-diabetic mice (30 mg/kg of bw per os, 3h), 13.5 ± 6.1 mM; in the series with STZ-diabetic mice (30 mg/kg of bw per os, 5h) it was 12.7 ± 6.7 mM; in the series on STZ-diabetic mice (30 mg/kg of bw per os, 7h), 10.3 ± 5.6 mM; in the series with STZ-diabetic mice (30 mg/kg of bw per os, 9h) it was 7.3 ± 4.5 mM. Also, the Blood glucose concentration in the series on STZ-diabetic mice (100 mg/kg of bw per os, 0h) was found to be 18.2 ± 4.1 mM; in the series on STZ-diabetic mice (100 mg/kg of bw per os, 1.5h), 17.3 ± 6.7 mM; in the series with STZ-diabetic mice (100 mg/kg of bw per os, 3h), 13.0 ± 6.6 mM; with STZ-diabetic mice (100 mg/kg of bw per os, 5h) it was 11.0 ± 6.4 mM; in the series on STZ-diabetic mice (100 mg/kg of bw per os, 7h) it was 11.8 ± 6.0 mM; in the series with STZ-diabetic mice (100 mg/kg of bw per os, 9h), 10.2 ± 4.6 mM. The “% Variation of glycemia” value is on record as “(−3.27) %” with STZ-diabetic mice (10 mg/kg of bw per os, 1.5h); “(−25.49) %” in the series with STZ-diabetic mice (10 mg/kg of bw per os, 3h); “(−41.83) %” with STZ-diabetic mice (10 mg/kg of bw per os, 5h); “(−58.17) %” in the series on STZ-diabetic mice (10 mg/kg of bw per os, 7h); “(−54.25) %” with STZ-diabetic mice (10 mg/kg of bw per os, 9h); “(−18.13) %” in the series on STZ-diabetic mice (30 mg/kg of bw per os, 1.5h). In addition, the “% Variation of glycemia” value is on record as “(−25.82) %” in the series on STZ-diabetic mice (30 mg/kg of bw per os, 3h); “(−30.22) %” in the series with STZ-diabetic mice (30 mg/kg of bw per os, 5h); “(−43.41) %” with STZ-diabetic mice (30 mg/kg of bw per os, 7h); “(−59.89) %” in the series with STZ-diabetic mice (30 mg/kg of bw per os, 9h); “(−4.95) %” with STZ-diabetic mice (100 mg/kg of bw per os, 1.5h); “(−28.57) %” with STZ-diabetic mice (100 mg/kg of bw per os, 3h). For the same molecule, the “% Variation of glycemia” value is listed as “(−39.56) %” with STZ-diabetic mice (100 mg/kg of bw per os, 5h); “(−35.17) %” with STZ-diabetic mice (100 mg/kg of bw per os, 7h); “(−43.96) %” in the series on STZ-diabetic mice (100 mg/kg of bw per os, 9h).

`Cc1ccc(C)c(-c2cc3ccc(O)cc3oc2=O)c1` [Compound 20, 7-Hydroxy-3-(2,5-dimethylphenyl)-coumarin]: the melting point is 189.1 to 190.6 °C. The molecule also yielded an IC50 in series [1] greater than 1000 µM. In addition, the IC50 in series [2] is greater than 1 mM. For the same molecule, the concentration for half-maximal inhibition (IC50) at α-Glucosidase was greater than 1000 µM. In addition, the half-maximal inhibitory concentration (IC50) in the series with AGEs formation is greater than 1000 µM.

`COc1ccc(-c2cc3ccc(O)c(O)c3oc2=O)cc1` [Compound 34, 7,8-Dihydroxy-3-(4-methoxyphenyl)-coumarin]: the melting point lay in the range of 234.4 to 235.4 °C. The molecule also yielded an IC50 in series [1] of 3.66 ± 0.03 µM. Also, the IC50 in series [2] is greater than 1 mM. At α-Glucosidase, this molecule showed an IC50 of 18.8 ± 1.02 µM. In the series on AGEs formation, this molecule returned an IC50 greater than 1000 µM.

With `COc1ccc(-c2cc3c(O)cc(O)cc3oc2=O)cc1OC` [Compound 42, 5,7-Dihydroxy-3-(3,4-dimethoxyphenyl)-coumarin], the melting point lay in the range of 322 to 324.1 °C. Half-maximal inhibition in series [1] (IC50) required 5.89 ± 0.06 µM. In addition, the IC50 in series [2] was greater than 1 mM. Further, the IC50 at α-Glucosidase amounted to 39.1 ± 0.76 µM. In the series with AGEs formation, this molecule showed an IC50 of 18.3 ± 0.38 µM.
